Experimental data taken from patent US10231453B2, “5-substituted imidazole derivatives” (BAYER CROPSCIENCE AKTIENGESELLSCHAFT, priority 2015, dated 2019).

Assays:
Septoria tritici = assay: In vivo preventive test on Septoria tritici (leaf spot on wheat), Examples E, Q3 and R5; conditions: Zymoseptoria tritici, 576 h, 500 ppm of active ingredient; wheat, preventive spray, evaluated 24 days after inoculation; read-out: efficacy
Sphaerotheca fuliginea = assay: In vivo preventive test on Sphaerotheca fuliginea (powdery mildew on cucurbits), Examples F and R6; conditions: Podosphaera fuliginea, 360 h; 500 ppm of active ingredient; gherkin, preventive spray, evaluated 15 days after inoculation; read-out: efficacy
Uromyces appendiculatus = assay: In vivo preventive test on Uromyces appendiculatus (bean rust), Examples G and R7; conditions: 264 h, 500 ppm of active ingredient, bean, preventive spray, evaluated 11 days after inoculation, read-out: efficacy
[1] = Measurement of LogP values by HPLC on reversed phase columns (EEC directive 79/831 Annex V.A8); format: physicochemical; conditions: method [a]: LC-UV, acidic range, 0.1% formic acid in water and acetonitrile as eluent; Table 1
Experimental: Measurement of Log P values was performed as outlined above.

[2] = system: Blumeria graminis fsp. hordei; assay: In vivo preventive Blumeria test (barley), Example K; conditions: 168 h, 500 ppm of active ingredient, preventive spray, evaluated 7 days after inoculation, read-out: efficacy
Description: After the spray coating has been dried, the plants are dusted with spores of Blumeria graminis fsp. hordei.

[3] = system: Fusarium nivale (var. majus); assay: In vivo preventive Fusarium nivale (var. majus) test (wheat), Example O; conditions: Microdochium nivale, 120 h, 500 ppm of active ingredient, preventive spray, evaluated 5 days after inoculation, read-out: efficacy
Description: After the spray coating has been dried, the plants are slightly injured by using a sandblast and afterwards they are sprayed with a conidia suspension of Fusarium nivale (var. majus).

Alternaria brassicae = assay: In vivo preventive test on Alternaria brassicae (leaf spot on radish), Examples A and R1; conditions: Alternaria brassicae, 144 h, 500 ppm of active ingredient, preventive spray, evaluated 6 days after inoculation, read-out: efficacy
Pyrenophora teres = assay: In vivo preventive test on Pyrenophora teres (net blotch on barley), Examples D, Q2 and R4; conditions: Pyrenophora teres, 336 h, 500 ppm of active ingredient, preventive spray, evaluated 14 days after inoculation, read-out: efficacy
Puccinia recondita = assay: In vivo preventive test on Puccinia recondita (brown rust on wheat), Examples C and R3; conditions: Puccinia recondita, 264 h; 500 ppm of active ingredient; wheat, preventive spray, evaluated 11 days after inoculation; read-out: efficacy
Alternaria solani = assay: In vivo preventive Alternaria test (tomatoes), Example H; conditions: 72 h, 100 ppm of active ingredient, preventive spray, evaluated 3 days after inoculation, read-out: efficacy
Botrytis cinerea = assay: In vivo preventive test on Botrytis cinerea (grey mould) on gherkin, Examples B, Q1 and R2; conditions: Botrytis cinerea, 500 ppm of active ingredient, preventive spray, evaluated 4 to 5 days after inoculation, read-out: efficacy
Phakopsora pachyrhizi = assay: In vivo preventive Phakopsora test (soybeans), Example I; conditions: 168 h, 100 ppm of active ingredient, preventive spray, evaluated 7 days after inoculation, read-out: efficacy
Pyricularia oryzae = assay: whole plant or invertebrate; format: in vivo; conditions: 192 h, read-out: efficacy
Venturia inaequalis = assay: In vivo preventive Venturia test (apples), Example J; conditions: 240 h, read-out: efficacy
Experimental: After the spray coating has dried on, the plants are inoculated with an aqueous conidia suspension of the causal agent of apple scab (Venturia inaequalis) and then remain for 1 day in an incubation cabinet at approximately 20° C. and a relative atmospheric humidity of 100%.
The plants are then placed in a greenhouse at approximately 21° C. and a relative atmospheric humidity of approximately 90%.
The test is evaluated 10 days after the inoculation.

Fusarium graminearum = assay: whole plant or invertebrate; format: in vivo; conditions: in Hordeum vulgare, 120 h, read-out: efficacy

Which results are given for `COC(=O)c1cncn1CC(O)(Cc1ccccc1Cl)C1(Cl)CC1` (centres unmarked) [Example I-01]?
pest or weed control at 500 ppm (Septoria tritici): 90 to 100%; pest or weed control at 500 ppm (Sphaerotheca fuliginea): 90 to 100%; pest or weed control at 500 ppm (Uromyces appendiculatus): 90 to 100%; chromatographic logP [1]: 2.82; pest or weed control at 500 ppm [2]: 90 to 100%; pest or weed control at 500 ppm [3]: 70 to 79%; pest or weed control at 500 ppm (Alternaria brassicae): 80 to 89%; pest or weed control at 500 ppm (Pyrenophora teres): 90 to 100%; pest or weed control at 500 ppm (Puccinia recondita): 90 to 100%

Which results are given for `OC(Cc1cc(Cl)ncc1Cl)(Cn1cncc1Cl)C1(Cl)CC1` (centres unmarked) [Example I-17]?
pest or weed control at 500 ppm (Septoria tritici): 90 to 100%; pest or weed control at 500 ppm (Sphaerotheca fuliginea): 90 to 100%; pest or weed control at 100 ppm (Alternaria solani): 90 to 100%; pest or weed control at 500 ppm (Uromyces appendiculatus): 90 to 100%; chromatographic logP [1]: 2.18; pest or weed control at 500 ppm [2]: 70 to 79%; pest or weed control at 500 ppm (Botrytis cinerea): 80 to 89%; pest or weed control at 500 ppm (Alternaria brassicae): 90 to 100%; pest or weed control at 100 ppm (Phakopsora pachyrhizi): 90 to 100%; pest or weed control at 500 ppm (Pyrenophora teres): 90 to 100%; pest or weed control at 500 ppm (Puccinia recondita): 80 to 89%; pest or weed control at 500 ppm (Pyricularia oryzae): 90 to 100%; pest or weed control at 100 ppm (Venturia inaequalis): 90 to 100%

Which results are given for `N#Cc1cncn1CC(O)(Cc1ccccc1Br)C1(Cl)CC1` (centres unmarked) [Example I-40]?
pest or weed control at 500 ppm (Septoria tritici): 90 to 100%; pest or weed control at 500 ppm (Sphaerotheca fuliginea): 90 to 100%; pest or weed control at 100 ppm (Alternaria solani): 90 to 100%; pest or weed control at 500 ppm (Uromyces appendiculatus): 90 to 100%; pest or weed control at 500 ppm [2]: 90 to 100%; pest or weed control at 500 ppm (Botrytis cinerea): 90 to 100%; pest or weed control at 500 ppm (Alternaria brassicae): 80 to 89%; pest or weed control at 100 ppm (Phakopsora pachyrhizi): 90 to 100%; pest or weed control at 500 ppm (Pyrenophora teres): 70 to 79%; pest or weed control at 500 ppm (Puccinia recondita): 80 to 89%; pest or weed control at 500 ppm (Pyricularia oryzae): 70 to 79%; pest or weed control at 100 ppm (Venturia inaequalis): 80 to 89%

For `N#Cc1cncn1CC(O)(Cc1ccnc(Cl)c1Cl)C1(Cl)CC1` (centres unmarked) [Example I-50], which pest or weed control at 500 ppm (Septoria tritici) is on record?
The pest or weed control at 500 ppm was 90 to 100%.

What about the pest or weed control at 500 ppm (Sphaerotheca fuliginea) of the same compound?
Its pest or weed control at 500 ppm is 90 to 100%.

And the pest or weed control at 100 ppm (Alternaria solani)?
The pest or weed control at 100 ppm was 70 to 79%.

And the pest or weed control at 500 ppm (Uromyces appendiculatus)?
The pest or weed control at 500 ppm was 90 to 100%.

And the chromatographic logP [1]?
Its chromatographic logP is 2.47.

What about the pest or weed control at 500 ppm [2] of the same compound?
The pest or weed control at 500 ppm was 90 to 100%.

What about the pest or weed control at 500 ppm [3] of the same compound?
The pest or weed control at 500 ppm was 90 to 100%.

And the pest or weed control at 100 ppm (Phakopsora pachyrhizi)?
Its pest or weed control at 100 ppm is 80 to 89%.

What about the pest or weed control at 500 ppm (Pyrenophora teres) of the same compound?
Its pest or weed control at 500 ppm is 80 to 89%.

What about the pest or weed control at 500 ppm (Puccinia recondita) of the same compound?
Its pest or weed control at 500 ppm is 80 to 89%.

What about the pest or weed control at 500 ppm (Pyricularia oryzae) of the same compound?
Its pest or weed control at 500 ppm is 70 to 79%.

And the pest or weed control at 100 ppm (Venturia inaequalis)?
Its pest or weed control at 100 ppm is 80 to 89%.

What does the source list for `N#Cc1cncn1CC(O)(Cc1ccc(Cl)cc1)C1(Cl)CC1` (centres unmarked) [Example I-64]?
pest or weed control at 500 ppm (Septoria tritici): 90 to 100%; pest or weed control at 500 ppm (Sphaerotheca fuliginea): 90 to 100%; pest or weed control at 500 ppm (Uromyces appendiculatus): 90 to 100%; chromatographic logP [1]: 3.1; pest or weed control at 500 ppm [2]: 90 to 100%; pest or weed control at 500 ppm (Fusarium graminearum): 80 to 89%; pest or weed control at 500 ppm (Puccinia recondita): 90 to 100%

For `OC(Cc1ccc(Cl)cc1Cl)(Cn1cncc1Cl)C1(Cl)CC1` (centres unmarked) [Example I-69], which pest or weed control at 500 ppm (Septoria tritici) is on record?
Its pest or weed control at 500 ppm is 80 to 89%.

What about the pest or weed control at 500 ppm (Sphaerotheca fuliginea) of the same compound?
Its pest or weed control at 500 ppm is 90 to 100%.

And the pest or weed control at 100 ppm (Alternaria solani)?
The pest or weed control at 100 ppm was 90 to 100%.

What about the pest or weed control at 500 ppm (Uromyces appendiculatus) of the same compound?
Its pest or weed control at 500 ppm is 90 to 100%.

What about the pest or weed control at 500 ppm (Botrytis cinerea) of the same compound?
Its pest or weed control at 500 ppm is 80 to 89%.

What about the pest or weed control at 500 ppm (Alternaria brassicae) of the same compound?
Its pest or weed control at 500 ppm is 70 to 79%.

What about the pest or weed control at 100 ppm (Phakopsora pachyrhizi) of the same compound?
Its pest or weed control at 100 ppm is 90 to 100%.

And the pest or weed control at 500 ppm (Pyrenophora teres)?
Its pest or weed control at 500 ppm is 80 to 89%.

And the pest or weed control at 500 ppm (Puccinia recondita)?
The pest or weed control at 500 ppm was 80 to 89%.

And the pest or weed control at 100 ppm (Venturia inaequalis)?
The pest or weed control at 100 ppm was 90 to 100%.

Which results are given for `N#Cc1cncn1CC(O)(Cc1ccccc1C(F)(F)F)C1(Cl)CC1` (centres unmarked) [Example I-88]?
pest or weed control at 500 ppm (Septoria tritici): 90 to 100%; pest or weed control at 500 ppm (Sphaerotheca fuliginea): 90 to 100%; pest or weed control at 500 ppm (Uromyces appendiculatus): 90 to 100%; chromatographic logP [1]: 3.15; pest or weed control at 500 ppm [2]: 90 to 100%; pest or weed control at 500 ppm [3]: 80 to 89%; pest or weed control at 500 ppm (Fusarium graminearum): 90 to 100%; pest or weed control at 500 ppm (Pyrenophora teres): 90 to 100%; pest or weed control at 500 ppm (Puccinia recondita): 90 to 100%

What does the source list for `N#Cc1cncn1CC(O)(Cc1ccccc1Cl)C1(F)CC1` (centres unmarked) [Example I-98]?
pest or weed control at 500 ppm (Septoria tritici): 90 to 100%; pest or weed control at 500 ppm (Sphaerotheca fuliginea): 90 to 100%; pest or weed control at 100 ppm (Alternaria solani): 90 to 100%; pest or weed control at 500 ppm (Uromyces appendiculatus): 90 to 100%; chromatographic logP [1]: 2.53; pest or weed control at 500 ppm [2]: 90 to 100%; pest or weed control at 500 ppm (Botrytis cinerea): 70 to 79%; pest or weed control at 500 ppm (Fusarium graminearum): 90 to 100%; pest or weed control at 100 ppm (Phakopsora pachyrhizi): 90 to 100%; pest or weed control at 500 ppm (Pyrenophora teres): 90 to 100%; pest or weed control at 500 ppm (Puccinia recondita): 90 to 100%; pest or weed control at 500 ppm (Pyricularia oryzae): 90 to 100%; pest or weed control at 100 ppm (Venturia inaequalis): 90 to 100%

Which pest or weed control at 500 ppm (Septoria tritici) does the source give for `N#Cc1cncn1CC(O)(Cc1ccc(F)c(Cl)c1F)C1(Cl)CC1` (centres unmarked) [Example I-101] here?
The pest or weed control at 500 ppm was 90 to 100%.

And the pest or weed control at 500 ppm (Sphaerotheca fuliginea)?
The pest or weed control at 500 ppm was 90 to 100%.

And the pest or weed control at 100 ppm (Alternaria solani)?
The pest or weed control at 100 ppm was 90 to 100%.

And the pest or weed control at 500 ppm (Uromyces appendiculatus)?
The pest or weed control at 500 ppm was 90 to 100%.

And the chromatographic logP [1]?
Its chromatographic logP is 3.17.

And the pest or weed control at 500 ppm [2]?
Its pest or weed control at 500 ppm is 90 to 100%.

And the pest or weed control at 100 ppm (Phakopsora pachyrhizi)?
The pest or weed control at 100 ppm was 90 to 100%.

What about the pest or weed control at 500 ppm (Pyrenophora teres) of the same compound?
The pest or weed control at 500 ppm was 90 to 100%.

What about the pest or weed control at 500 ppm (Puccinia recondita) of the same compound?
The pest or weed control at 500 ppm was 90 to 100%.

And the pest or weed control at 100 ppm (Venturia inaequalis)?
Its pest or weed control at 100 ppm is 80 to 89%.
